Source: patent US20230167062A1, “AMIDE COMPOUND CONTAINING SUBSTITUTED ACETOPHENONE STRUCTURAL FRAGMENTS AND PREPARATION METHOD AND APPLICATION THEREOF” (SHENYANG SINOCHEM AGROCHEMICALS R&D CO., LTD., priority 2019, published 2023)

Experiments:
cucumber downy mildew = test: In vivo protection activity against cucumber downy mildew (live pot determination); details: for control effects, Cucumber downy mildew: 400 ppm (Table 2); for control effects on cucumber downy mildew: dose of 400 ppm, spray, inoculated after 24 hours
Description: (§1) The test of in vivo protection effect is conducted on various fungal diseases of plants through samples of the compounds of the present invention. The determination results of the fungal activity are shown in the following embodiments.
(§2) The determination method is as follows: the to-be-determined sample of the compound of general formula I obtained above was dissolved with a small amount of solvent (the type of the solvent is, for example, acetone, methanol, DMF, etc., and is selected according to the dissolving ability to the sample; and the volume ratio of the solvent amount to the liquid spray amount is equal to or less than 0.05) by a live pot determination method, and diluted with water containing 0.1% Tween 80 to prepare to-be-determined liquid with required concentration. On a crop sprayer, the to-be-determined liquid was sprayed onto disease host plants (the host plants are standard potted seedlings cultivated in a greenhouse), and the disease was inoculated after 24 hours. According to the characteristics of the disease, the diseased plants that need to be cultivated under temperature control and moisturizing were inoculated and then placed in an artificial climate chamber for cultivation. […] After full onset through control (usually one week), the disease prevention effect of the compound was evaluated.

wheat powdery mildew = test: In vivo protection activity against wheat powdery mildew (live pot determination); details: for control effects on wheat powdery mildew: dose of 400 ppm
Description: as §1, §2

corn rust = test: In vivo protection activity against corn rust (live pot determination); details: for control effects, Corn rust: 400 ppm (Table 4); for control effects on corn rust: dose of 400 ppm
Description: as §1, §2

cucumber anthracnose = test: In vivo protection activity against cucumber anthracnose (live pot determination); details: dose of 400 ppm
Description: as §1, §2

cucumber botrytis = test: In vivo protection activity against cucumber botrytis (live pot determination); details: 200 ppm
Description: as §1, §2

tomato botrytis = test: In vivo protection activity against tomato botrytis (live pot determination)
Description: as §1, §2

Structure (SMILES) | control effects, Cucumber downy mildew (cucumber downy mildew) | control effects on cucumber downy mildew (cucumber downy mildew) | control effects, Wheat powdery mildew (wheat powdery mildew; 400 ppm (Table 3)) | control effects on wheat powdery mildew (wheat powdery mildew) | control effects, Corn rust (corn rust) | control effects on corn rust (corn rust) | control effects on cucumber anthracnose (cucumber anthracnose) | Control effects on cucumber botrytis (%) (cucumber botrytis) | Control effects on tomato botrytis (%) (tomato botrytis; 25 ppm) | Control effects on tomato botrytis (%) (tomato botrytis; 100 ppm) | control effects, Wheat powdery mildew (wheat powdery mildew; 100 ppm (Table 3)) | melting point
Cc1cc(OC(C)C)ccc1C(=O)C(C)(C)NC(=O)c1cccnc1C(F)(F)F [CK1] | 0 | 0% | 85 | 85% | 0 | 0% | 0% | 0% |  |  |  | 
Cc1cc(OC(C)C)ccc1C(=O)C(C)(C)NC(=O)c1cccnc1Cl [CK2] | 0 | 0% | 85 | 85% | 0 | 0% | 0% | 0% | 0% | 20% |  | 
Cc1cc(OC(C)C)ccc1C(=O)C(C)(C)NC(=O)c1cn(C)nc1C(F)(F)F [CK3] | 0 | 0% | 85 | 85% | 0 | 0% | 0% | 60% | 20% | 35% |  | 
Cc1cc(OC(C)C)ccc1C(=O)C(C)(C)NC(=O)c1c(C(F)(F)F)nn(C)c1Cl [CK4] | 0 | 0% | 75 | 75% | 0 | 0% | 0% | 25% | 0% | 0% |  | 
Cc1cc(OC(C)C)ccc1C(=O)C(C)(C)NC(=O)c1cccnc1C(F)F [Compound I-2] | 40 |  | 100 |  |  |  |  |  |  |  | 100 | 96.9 °C
